Measurements as given in patent US4816464A, “10-Substituted benzo[b][1,6]naphthyridines as inhibitors of interleukin 1” (American Home Products Corporation, priority 1987, dated 1989).

Columns and labels:
[1] = test system: IL 1-induced release of neutral protease from rabbit articular chondrocytes; assay: inhibition of IL 1-induced release of neutral protease from rabbit articular chondrocytes (azocoll assay); assay type: cell-based, rabbit (New Zealand White); conditions: Oryctolagus cuniculus, Chondrocyte, compound added 10 min before human IL 1, 24 h stimulation, read-out: % Inhibition (I.S.D.)
Method: The ability of the compounds of the inventions to inhibit interleukin 1 is measured by the ability of the test compounds to inhibit the IL 1-induced release of neutral protease from rabbit articular chondrocytes.
Male New Zealand White rabbits are anesthetized with 50 mg/kg of ketamine (i.m.) and killed by an intracardiac injection of 3 mls. of Nembutal. The knee joints of both legs are resected and the articular surfaces are exposed. Cartilage slices are obtained using a scalpel and are placed in a tissue culture dish (100 mm diameter) containing 10 mls of Hank's balanced salt solution (HBSS). The chondrocytes within the cartilage slices are then liberated by a series of enzyme digestions. The slices are incubated for 10 min. at 37° C. in 0.05% hyaluronidase (Sigma H-3884), rinsed with HBSS and incubated with 0.2% trypsin (Sigma T-2395) for 10 min. at 37° C. The slices are rinsed again and incubated for 10 mins. at 37° C. with 1.2% collagenase (Sigma C-5138). The slices are then rinsed again with HBSS and resuspended in 10 ml of Ham's F-12 medium containing 10% fetal bovine calf serum (FCS) and 0.2% collagenase and incubated overnight at 37° C. in a 5% CO2 incubator. The next day, the medium containing the digested cartilage fragments and liberated chondrocytes is transferred to a 15 ml centrifuge tube and the cells are collected by centrifugation and washed twice and resuspended in Ham's F-12 medium. The cells are then plated into 24-well tissue culture plates (2×10^5 cells/well) and incubated at 37° C. until confluent (usually 4-6 days).
The confluent chondrocytes are rinsed twice with serum-free Ham's F-12 medium and 1 ml is added to each well. Fifty μl of purified human IL 1 (100 Units/ml; Genzyme Corporation, Boston, MA) is then added to stimulate these cells to secrete neutral protease. To measure drug effects, the cells are treated with test compound 10 min. prior to addition of IL 1. The standard screening dose is 10 μM. Twenty-four hours after IL 1 stimulation, supernatant fluids are collected and assayed for neutral protease activity.
The neutral protease activity of chondrocyte supernatant fluids is determined by their ability to degrade an insoluble protease substrate, azocoll (Sigma). Supernatants are treated for 10 min. at room temperature with 350 μM p-aminophenylmurcuric acetate to activate the latent enzyme. Three hundred μl of supernatant is then mixed with 500 μl of a 20 mg/ml suspension of azocoll and incubated at 37° C. for 18-24 hrs. with gentle rocking. The mixtures are centrifuged and the amount of substrate hyrolyzed is determined by measuring the absorbance of the supernatant at 520 nm.
Drug effects are calculated as the % change in enzyme activity (absorbance)by supernatants from drug-treated chondrocytes relative to enzyme activity of supernatants from vehicle-treated chondrocytes as follows: [formula]

carrageenan paw edema = assay: rat carrageenan paw edema assay; assay type: in vivo, rat (Sprague-Dawley); conditions: for ED50: Rattus norvegicus, po, 3 h, read-out: Oral ED50 (95% C.L.); for % Change: 1 hour prior to carrageenan, edema at 3 hours
Method: The compounds of the invention are tested in the rat carrageenan paw edema assay to determined their ability to inhibit the acute inflammatory response. 140-180 gm male Sprague-Dawley rats, in groups of 6 animals, are injected subcutaneously in the right paw with 0.1 ml of 1% carrageenan at zero time. Mercury plethysmographic readings (ml) of the paw are made at zero time and 3 hours later. Test compounds are suspended or dissolved in 0.5% methylcellulose and given perorally 1 hour prior to carrageenan administration. The increase in paw volume (edema in ml.) produced by the carrageenan is measured. Paw edema is calculated (3 hour volume minus zero time volume), and percent inhibit of edema is determined. Unpaired Student's t-test is used to determine statistical significance.

Row | SMILES | inhibition at 10 µM [1] [%] | further results
1 | CN1CCc2nc3cc(Cl)ccc3c(Sc3ccccc3)c2C1 [Example 17, 7-Chloro-1,2,3,4-tetrahydro-2-methyl-10-thiophenylbenzo[b][1,6]naphthyridine] | 44 ± 21 | 
2 | CN1CCc2nc3cc(Cl)ccc3c(Oc3ccccc3)c2C1 [Example 15, 7-Chloro-1,2,3,4-tetrahydro-2-methyl-10-phenoxybenzo[b][1,6]naphthyridine] | 22 ± 28 | 
3 | CN1CCc2nc3cc(Cl)ccc3c(Nc3ccccc3)c2C1 [Example 14, 10-Anilino-7-chloro-1,2,3,4-tetrahydro-2-methylbenzo[b][1,6]naphthyridine] | 14 ± 4 | 
4 | CN1CCc2nc3cc(Cl)ccc3c(Cl)c2C1 [Example 5] | 26 ± 23 | 
5 | CN1CCc2nc3ccc(Cl)cc3c(SCCCN)c2C1 [Example 21, 10-(3-Aminopropylthio)-8-chloro-1,2,3,4-tetrahydro-2-methylbenzo[b][1,6]naphthyridine] | 42 ± 26 | 
6 | CCCCCCCCN1CCc2nc3cc(Cl)ccc3c(NNc3ccccc3)c2C1 [Example 9, 7-Chloro-1,2,3,4-tetrahydro-2-octyl-10-(2-phenyl-hydrazino)benzo[6][1,6]naphthyridine] |  | inhibition at 1 µM [1]: 22 ± 6%
7 | C=CCCCN1CCc2nc3cc(Cl)ccc3c(NNc3ccccc3)c2C1 [Example 11, 7-Chloro-1,2,3,4-tetrahydro-2-(4-pentenyl)-10-(2-phenyl-hydrazino)benzo[b][1,6]naphthyridine, sesquihydrate] | 11 ± 26 | 
8 | CN1CCc2nc3ccc(Cl)cc3c(Nc3ccccc3)c2C1 [Example 19, 10-Anilino-8-chloro-1,2,3,4-tetrahydro-2-methylbenzo[b][1,6]naphthyridine] | 23 ± 25 | 
9 | CC(=O)Oc1ccccc1C(=O)O [Aspirin, reference compound] |  | ED50 (carrageenan paw edema): 145 mg/kg
10 | CCCCCCCCN1CCc2nc3cc(Cl)ccc3c(Cl)c2C1 [Example 2, 7,10-dichloro-1,2,3,4-tetrahydro-2-octylbenzo[b][1,6]naphthyridine] | 51 | 
11 | CCCCN1CCc2nc3cc(Cl)ccc3c(NNc3ccccc3)c2C1 [Example 8, 2-Butyl-7-chloro-1,2,3,4-tetrahydro-10-(2-phenyl-hydrazino)benzo[b][1,6]naphthyridine] |  | inhibition at 1 µM [1]: 22 ± 6%
12 | CN1CCc2nc3cc(Cl)ccc3c(NCCN3CCOCC3)c2C1 [Example 13, 7-Chloro-1,2,3,4-tetrahydro-2-methyl-N-(2-(4-morpholinyl)-ethyl)benzo[b][1,6]naphthyridin-10-amine] | 4 ± 13 | 
13 | CN1CCN(c2c3c(nc4cc(Cl)ccc24)CCN(C)C3)CC1 [Example 16, 7-Chloro-1,2,3,4-tetrahydro-2-methyl-10-(4-methyl-1-piperazinyl)benzo[b][1,6]naphthyridine] |  | inhibition at 5 µM [1]: 14 ± 3%
14 | COCCNc1c2c(nc3cc(Cl)ccc13)CCN(C)C2 [Example 12, 7-Chloro-1,2,3,4-tetrahydro-N-(2-methoxyethyl)-2-methylbenzo[b]-[1,6]naphthyridin-10-amine, three quarter hydrate] | 62 ± 28 | 
15 | CN1CCc2nc3cc(Cl)ccc3c(NNc3ccccc3)c2C1 [Example 7, 1-(7-Chloro-1,2,3,4-tetrahydro-2-methylbenzo[b][1,6]-naphthyridin-10-yl)-2-phenylhydrazine] | 78 ± 13 | % Change (carrageenan paw edema; 10 mg/kg perorally): 41%; % Change (carrageenan paw edema; 30 mg/kg perorally): 64%; % Change (carrageenan paw edema; 90 mg/kg perorally): 68%; % Change (carrageenan paw edema; 100 mg/kg perorally): 59%; inhibition at 1 µM [1]: 35 ± 22%
16 | C=CCCCN1CCc2nc3cc(Cl)ccc3c(Cl)c2C1 [Example 4, 7,10-Dichloro-1,2,3,4-tetrahydro-2-(4-pentenyl)benzo[b][1,6]naphthyridine] | 12 ± 5 | 
17 | CN1CCc2nc3ccc(Cl)cc3c(Oc3ccccc3)c2C1 [Example 18, 8-Chloro-1,2,3,4-tetrahydro-2-methyl-10-phenoxybenzo[b][1,6]naphthyridine] | 9 ± 28 | 
18 | CCCCN1CCc2nc3cc(Cl)ccc3c(Cl)c2C1 [Example 1, 2-Butyl-7,10-dichloro-1,2,3,4-tetrahydrobenzo[b][1,6]naphthyridine] | 3 | 
19 | COc1ccc2c(c1)c(CC(=O)O)c(C)n2C(=O)c1ccc(Cl)cc1 [Indomethacin, reference compound] |  | ED50 (carrageenan paw edema): 3.7 mg/kg
20 | CN1CCc2nc3ccc(Cl)cc3c(NN)c2C1 [Example 20, (8-Chloro-1,2,3,4-tetrahydro-2-methylbenzo[b][1,6]naphthyridin-10-yl)hydrazine] |  | inhibition at 5 µM [1]: 18%
21 | C=CCN1CCc2nc3cc(Cl)ccc3c(NNc3ccccc3)c2C1 [Example 10, 7-Chloro-1,2,3,4-tetrahydro-10-(2-phenylhydrazino)-2-(2-propenyl)benzo[b][1,6]naphthyridine, dihydrate] | 62 ± 2 | 
22 | CN1CCc2nc3ccc(Cl)cc3c(Cl)c2C1 [Example 6, 8,10-Dichloro-1,2,3,4-tetrahydro-2-methylbenzo[b][1,6]naphthyridine] | 13 ± 6 | 
